# pIC50: −log10 of the molar value. “Also recorded” adds a separate entry of the source. Read-outs that look alike come from different tables or passages of the source.
# Tests used:
# [1] = tested on: LnCap; assay: Cell Proliferation (anti-cancer), LnCap; assay type: cell-based, human
# Method: (§1) The primary goal of synthesizing de-ethylflavopereirine (compound 13-9-1) was to generate a different compound that still retains the anti-cancer cell activity of flavopereirine (compound 13-7-2). Comparison of the effects of the two compounds on proliferation of a variety of cancer cells confirmed that this goal was achieved. For example, the effect of de-ethylflavopereirine on two human breast cancer cell lines and two human prostate cancer cell lines were analyzed.
# [2] = tested on: RPWE-1; assay: Cell Proliferation (anti-cancer), RPWE-1; assay type: cell-based, human
# Method: as §1
# [3] = assay type: in vivo; conditions: for time of death of one mouse: male, scid/scid, beige/beige, 48 hr
# Method: A study with synthetic compounds 13-7-2 (flavopereirine) and 13-9-1 (de-ethylflavopereirine) was conducted to compare the toxicity of the two compounds in animals. The compounds were dissolved in phosphate buffered saline for administration. Both compounds were injected IP in male immunodeficient (homozygous recessive scid/scid, beige/beige) mice.
# Compound 13-7-2 was injected at a dose of 100 mg/kg, 150 mg/kg, and 200 mg/kg in mice divided in groups of two. […] One mouse injected with 150 mg/kg died at 6 hr whereas one mouse injected with 200 mg/kg dose died at 24 hr. One mouse injected with 100 mg/kg dose died at 48 hr.
# Compound 13-9-1 was injected at a dose of 100 mg/kg, 150 mg/kg, and 200 mg/kg in mice divided in groups of two.
# [4] = mouse, in vivo
# Method: To estimate the maximum tolerated dose of compounds 13-7-2 and 13-9-1 in mice, both compounds were dissolved in PBS and given to SCID mice by oral gavage.
# Compound 13-7-2 was administered at a dose of 100 mg/kg, 150 mg/kg, or 200 mg/kg. Each dose group consisted of three mice.
# Compound 13-9-1 was administered at a dose of 100 mg/kg, 150 mg/kg, or 200 mg/kg by oral gavage (three mice per dose group).
# In a separate dose finding/toxicity test with compound 13-9-1, three mice received escalating doses of 50 mg/kg/day for 3 days, 100 mg/kg/day for 7 days, 200 mg/kg/day for 7 days, and 300 mg/kg/day for 3 days, given by oral gavage. Mice were monitored closely for toxic signs.
# [5] = tested on: MIA PaCa, PANC-1, AsPc, BxPc; assay: Growth inhibition, gemcitabine alone or plus de-ethylflavopereirine; assay type: cell-based; conditions: four pancreatic cancer cell lines
# [6] = Homo sapiens, after any period of treatment, read-out: Minimum Dose (IC50) needed to decrease growth 50% or greater versus control
SMILES,Growth Inhibition [1],"pIC50 [1, 6]",Growth Inhibition [2],"pIC50 [2, 6]","mice that died after IP injection ([3]; all doses tested (100, 150, 200 mg/kg)) [%]","time of death of one mouse ([3]; mouse, in vivo, ip, 100 mg/kg) [h]","time of death of one mouse ([3]; mouse, in vivo, ip, 150 mg/kg) [h]","time of death of one mouse ([3]; mouse, in vivo, ip, 200 mg/kg) [h]","adverse effects observed ([3]; mouse, in vivo, ip, 100 mg/kg)","tolerated dose, oral administration ([4]; SCID)","adverse effects observed ([4]; SCID, po, 100 mg/kg, 48 hr)","deaths ([4]; SCID, po, 150 mg/kg, 48 hr)","deaths ([4]; SCID, po, 200 mg/kg, 48 hr)","signs of distress ([4]; po, 200 mg/kg)",response of the cell lines to the drug alone [5]
"CCc1ccc2c3[nH]c4ccccc4c3cc[n+]2c1 [Compound 13-7-2, flavopereirine]",Yes,5.00,Yes,5.00,50,48,6,24,swollen abdomen,up to 100 mg/kg,No signs of distress were observed in the 100 mg/kg group of mice with the exception of bradycardia 15 min after the administration of the compound in one mouse,two mice died 15 min after administration of the compound and one mouse died 48 hr after administration of the compound,One mouse from this group died 24 hr after the administration of the compound,"two mice exhibited signs of distress which included rapid breathing, bradycardia, shut eyes, and lethargy",
Nc1ccn([C@@H]2O[C@H](CO)[C@@H](O)C2(F)F)c(=O)n1 [gemcitabine],,,,,,,,,,,,,,,all four of the pancreatic cancer cell lines are resistant; also recorded: some resistance

# — patent US11083714B2, “Selective anti-cancer agent effective for prevention and treatment” (Molecular International Research, Inc., priority 2018, dated 2021)
